In ChEMBL document CHEMBL4819020, “Discovery of [1,2,4]triazolo[1,5-a]pyrimidines derivatives as potential anticancer agents” (Eur J Med Chem, 2021):
Active and inactive are the calls of the source. The rule behind the calls is not given here.

Columns and labels:
MGC-803 [1] = experiment: Antiproliferative activity against human MGC-803 cells assessed as cell viability measured after 24 to 72 hrs by MTT assay; format: functional, cell-based; details: dose 0.75-3 µM, time 24-72 hrs
MGC-803 [2] = experiment: Induction of apoptosis in human MGC-803 cells assessed by increase in ROS production at 3 uM measured after 24 hrs by DCFH-DA staining based flow cytometry; format: functional, cell-based
MGC-803 [3] = experiment: Induction of apoptosis in human MGC-803 cells assessed as late apoptotic cells at 1.5 uM measured after 48 hrs by Annexin V-FITC/PI staining based flow cytometry method (reference value: 3.10 %); format: functional
[4] = Toxicity in mouse assessed by effect on changes in body weight at 2 mg/kg, ig measured after 2 weeks; format: organism-based; details: in vivo, po, 336 h
[5] = Toxicity in mouse assessed as effect on lung at 2 mg/kg, ig measured after 2 weeks by H and E staining based microscopic method; format: organism-based; details: in vivo, po, 336 h
MGC-803 [6] = experiment: Cell cycle arrest in human MGC-803 cells assessed as accumulation of cells in G0/G1 phase at 3 uM measured after 24 hrs by PI staining based flow cytometry assay (reference value: 49.39%); format: functional
MGC-803 [7] = experiment: Induction of apoptosis in human MGC-803 cells assessed as necrotic cells at 1.5 uM measured after 48 hrs by Annexin V-FITC/PI staining based flow cytometry method (reference value: 3.60 %); format: functional
MGC-803 [8] = experiment: Cell cycle arrest in human MGC-803 cells assessed as accumulation of cells in G2/M phase at 0.75 uM measured after 24 hrs by PI staining based flow cytometry assay (reference value: 33.35%); format: functional
MGC-803 [9] = experiment: Cell cycle arrest in human MGC-803 cells assessed as accumulation of cells in S phase at 1.5 uM measured after 24 hrs by PI staining based flow cytometry assay (reference value: 18.03%); format: functional
MGC-803 [10] = experiment: Induction of apoptosis in human MGC-803 cells assessed as decrease in Bcl-2 expression at 0.75 to 3 uM measured after 48 hrs by western blot assay; format: functional, cell-based; details: dose 0.75-3 µM
[11] = Toxicity in mouse assessed as effect on kidney at 2 mg/kg, ig measured after 2 weeks by H and E staining based microscopic method; format: organism-based; details: in vivo, po, 336 h
MGC-803 [12] = experiment: Antiproliferative activity against human MGC-803 cells assessed as inhibition of colony formation at 0.125 to 0.5 uM measured after 7 days by crystal violet dye based colony formation assay; format: functional, cell-based; details: dose 0.125-0.5 µM, time 7.0 day
MGC-803 [13] = experiment: Induction of apoptosis in human MGC-803 cells assessed as early apoptotic cells at 1.5 uM measured after 48 hrs by Annexin V-FITC/PI staining based flow cytometry method (reference value: 0.992 %); format: functional
[14] = Toxicity in mouse assessed as effect on liver at 2 mg/kg, ig measured after 2 weeks by H and E staining based microscopic method; format: organism-based; details: in vivo, po, 336 h
MGC-803 [15] = experiment: Antiproliferative activity against human MGC-803 cells assessed as inhibition of cell proliferation measured after 72 hrs by MTT assay; format: functional, cell-based; details: MGC-803, 72 h
MGC-803 [16] = experiment: Induction of apoptosis in human MGC-803 cells assessed as late apoptotic cells at 3 uM measured after 48 hrs by Annexin V-FITC/PI staining based flow cytometry method (reference value: 3.10 %); format: functional
MGC-803 [17] = experiment: Induction of apoptosis in human MGC-803 cells assessed by cell rounding at 0.75 to 3 uM measured after 48 hrs by Hoechst 33342 staining based microscopic method; format: functional; details: dose 0.75-3 µM
MGC-803 [18] = experiment: Induction of apoptosis in human MGC-803 cells assessed as necrotic cells at 3 uM measured after 48 hrs by Annexin V-FITC/PI staining based flow cytometry method (reference value: 3.60 %); format: functional
MGC-803 [19] = experiment: Induction of apoptosis in human MGC-803 cells assessed as increase in cleaved caspase expression at 0.75 to 3 uM measured after 48 hrs by western blot assay; format: functional, cell-based; details: dose 0.75-3 µM
MGC-803 [20] = experiment: Induction of apoptosis in human MGC-803 cells assessed as increase in p53 expression at 0.75 to 3 uM measured after 48 hrs by western blot assay; format: functional, cell-based; details: dose 0.75-3 µM
[21] = Selectivity index, ratio of EC50 for human MGC-803 cells to EC50 for human GES1 cells
MGC-803 [22] = experiment: Cell cycle arrest in human MGC-803 cells assessed as accumulation of cells in G2/M phase at 1.5 uM measured after 24 hrs by PI staining based flow cytometry assay (reference value: 33.35%); format: functional
MGC-803 [23] = experiment: Inhibition of cell migration in human MGC-803 cells measured after 48 hrs by transwell assay; format: functional, cell-based; details: dose 0.25-1 µM
MGC-803 [24] = experiment: Induction of apoptosis in human MGC-803 cells assessed as late apoptotic cells at 0.75 uM measured after 48 hrs by Annexin V-FITC/PI staining based flow cytometry method (reference value: 3.10 %); format: functional
PC-9 = experiment: Antiproliferative activity against human PC-9 cells assessed as inhibition of cell proliferation measured after 72 hrs by MTT assay; format: functional, cell-based; details: PC-9, 72 h
[25] = Toxicity in mouse assessed as effect on spleen at 2 mg/kg, ig measured after 2 weeks by H and E staining based microscopic method; format: organism-based; details: in vivo, po, 336 h
MGC-803 [26] = experiment: Induction of apoptosis in human MGC-803 cells assessed as upregulation of Bax at 0.75 to 3 uM measured after 48 hrs by western blot assay; format: functional, cell-based; details: dose 0.75-3 µM
MGC-803 [27] = experiment: Cell cycle arrest in human MGC-803 cells assessed as accumulation of cells in S phase at 3 uM measured after 24 hrs by PI staining based flow cytometry assay (reference value: 18.03%); format: functional
MGC-803 [28] = experiment: Cell cycle arrest in human MGC-803 cells assessed as accumulation of cells in G0/G1 phase at 0.75 uM measured after 24 hrs by PI staining based flow cytometry assay (reference value: 49.39%); format: functional
MGC-803 [29] = experiment: Cell cycle arrest in human MGC-803 cells assessed as accumulation of cells in G2/M phase at 3 uM measured after 24 hrs by PI staining based flow cytometry assay (reference value: 33.35%); format: functional
GES1 = experiment: Antiproliferative activity against human GES1 cells assessed as inhibition of cell proliferation measured after 72 hrs by MTT assay; format: cell-based; details: GES1, 72 h
[30] = Toxicity in mouse assessed as effect on heart at 2 mg/kg, ig measured after 2 weeks by H and E staining based microscopic method; format: organism-based; details: in vivo, po, 336 h
MGC-803 [31] = experiment: Induction of cell cycle arrest in human MGC-803 cells assessed as increase in p27 expression at 0.75 to 3 uM measured after 24 hrs by western blot assay; format: functional, cell-based; details: dose 0.75-3 µM
MGC-803 [32] = experiment: Induction of apoptosis in human MGC-803 cells assessed as necrotic cells at 0.75 uM measured after 48 hrs by Annexin V-FITC/PI staining based flow cytometry method (reference value: 3.60 %); format: functional
MGC-803 [33] = experiment: Induction of apoptosis in human MGC-803 cells assessed as early apoptotic cells at 0.75 uM measured after 48 hrs by Annexin V-FITC/PI staining based flow cytometry method (reference value: 0.992 %); format: functional
MGC-803 [34] = experiment: Antiproliferative activity against human MGC-803 cells assessed as cell viability measured at 0.75 to 3 uM by MTT assay; format: functional, cell-based; details: dose 0.75-3 µM, time 24-72 hrs, TDE = time-dependent effect

Q: Which results are given for `Cc1cc(Nc2ccn(Cc3nc(C)c4ccccc4n3)n2)n2nc(SCc3ccc(Br)cc3)nc2n1`?
A: Activity (MGC-803 [1]): Dose-Dependent Effect; Activity (MGC-803 [2]): Active; Activity (MGC-803 [3]): 10.4%; Activity [4]: Non-Toxic; Activity [5]: Non-Toxic; Activity (MGC-803 [6]): 69.99%; Activity (MGC-803 [7]): 2.47%; Activity (MGC-803 [8]): 19.3%; Activity (MGC-803 [9]): 20.75%; Activity (MGC-803 [10]): Dose-Dependent Effect; Activity [11]: Non-Toxic; Activity (MGC-803 [12]): Active; Activity (MGC-803 [13]): 6.85%; Activity [14]: Non-Toxic; IC50 (MGC-803 [15]): 0.96 µM; Activity (MGC-803 [16]): 27.7%; Activity (MGC-803 [17]): Dose-Dependent Effect; Activity (MGC-803 [18]): 24.9%; Activity (MGC-803 [19]): Dose-Dependent Effect; Activity (MGC-803 [20]): Dose-Dependent Effect; Ratio EC50 [21]: 38; Activity (MGC-803 [22]): 14.61%; Activity (MGC-803 [23]): Dose-Dependent Effect; Activity (MGC-803 [24]): 5.23%; IC50 (PC-9): 5.45 µM; Activity [25]: Non-Toxic; Activity (MGC-803 [26]): Dose-Dependent Effect; Activity (MGC-803 [27]): 18.5%; Activity (MGC-803 [28]): 56.2%; Activity (MGC-803 [29]): 4.64%; IC50 (GES1): 36.8 µM; Activity [30]: Non-Toxic; Activity (MGC-803 [31]): Dose-Dependent Effect; Activity (MGC-803 [32]): 3.46%; Activity (MGC-803 [33]): 2.17%; Activity (MGC-803 [34]): Tde
